Target: Recombinant human Mat2a (Homo sapiens (Human), UniProt P31153)
Assay: Determination of Mat2A activity (384 well absorbance-based assay, Biomol Green)
Format: biochemical
Settings: 12.5 nM Mat2A, 100 μM ATP and Methionine, 2% DMSO, 120 minutes at RT, absorbance at 635 nm; read-out: MAT2A_LEC IC50 (uM) (Num)
Method: Determination of Mat2A Activity
Measurement of Mat2A inhibition is performed in 384 well format absorbance-based assay. Recombinant human Mat2a (12.5 nM) and serial diluted compounds in DMSO (range of concentrations from 10 μM to 508 pM) or controls (DMSO) are incubated for 15 minutes at room temperature (RT) in assay buffer containing 50 mM HEPES pH 7.5, 50 mM KCl, 50 mM MgCl2, 0.01%Tween 20 and 10 mM DTT. The reaction is initiated by the addition of the combined substrates ATP and Methionine, each at a final concentration of 100 μM. Final assay condition are 12.5 nM Mat2A, 100 μM ATP and Methionine Substrates and 2% DMSO. After 120 minutes of incubation at RT, the reaction is stopped by the addition of Biomol Green. The absorbance signal is measured at λ=635 nm with a multiplate reader (BMG Pherastar reader or equivalent) after 30 min of equilibration at RT.

Chain of Recombinant human Mat2a (P31153 whole entry): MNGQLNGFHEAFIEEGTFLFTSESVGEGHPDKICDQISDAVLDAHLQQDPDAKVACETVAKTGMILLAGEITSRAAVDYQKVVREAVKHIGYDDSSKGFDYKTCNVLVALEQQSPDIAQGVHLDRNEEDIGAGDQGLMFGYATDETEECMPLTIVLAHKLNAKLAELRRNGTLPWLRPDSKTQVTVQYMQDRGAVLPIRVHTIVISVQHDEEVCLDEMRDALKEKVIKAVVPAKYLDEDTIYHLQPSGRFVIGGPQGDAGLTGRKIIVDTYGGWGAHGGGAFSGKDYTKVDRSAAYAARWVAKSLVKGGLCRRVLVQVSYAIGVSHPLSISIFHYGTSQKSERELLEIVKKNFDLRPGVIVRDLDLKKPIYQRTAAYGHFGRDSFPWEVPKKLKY

Q: How did the IC50 turn out when `Cc1cc(-c2c(C#N)ccc3[nH]nc(C4CC4)c23)ccc1S(C)(=O)=O` [Example 63, 3-cyclopropyl-4-(3-methyl-4-methylsulfonylphenyl)-1H-indazole-5-carbonitrile] was run?
A: Its IC50 is < 0.013 µM.

Q: Which IC50 does the source give for `Cc1cc(-c2ncc(O)c3[nH]nc(C4CC4)c23)ccc1S(C)(=O)=O` [Example 64, 3-cyclopropyl-4-(3-methyl-4-methylsulfonyl-phenyl)-1H-pyrazolo[4,3-c]pyridin-7-ol] here?
A: Its IC50 is 0.2 µM.

Q: For `Cc1cc(-c2nccc3[nH]nc(-c4ccsc4)c23)ccc1S(C)(=O)=O` [Example 65, 4-(3-methyl-4-(methylsulfonyl)phenyl)-3-(thiophen-3-yl)-1H-pyrazolo[4,3-c]pyridine], which IC50 is on record?
A: The IC50 was 0.52 µM.

Q: With `CCOc1n[nH]c2ccnc(-c3ccc(S(C)(=O)=O)c(C)c3)c12` [Example 66, 3-ethoxy-4-(3-methyl-4-methylsulfonyl-phenyl)-1H-pyrazolo[4,3-c]pyridine] as the molecule, how does the IC50 read?
A: The IC50 was 0.13 µM.

Q: For `Cc1cc(-c2ncc(F)c3[nH]nc(C4CC4)c23)ccc1S(C)(=O)=O` [Example 67, 3-cyclopropyl-7-fluoro-4-(3-methyl-4-methylsulfonyl-phenyl)-1H-pyrazolo[4,3-c]pyridine], which IC50 is on record?
A: The IC50 was 0.025 µM.

Q: How did the IC50 turn out when `COc1n[nH]c2ccc(C#N)c(-c3ccc(S(C)(=O)=O)c(C)c3)c12` [Example 68, 3-methoxy-4-(3-methyl-4-(methylsulfonyl)phenyl)-1H-indazole-5-carbonitrile] was run?
A: Its IC50 is < 0.013 µM.

Q: How did the IC50 turn out when `Cc1cc(-c2c(C#N)ccc3[nH]nc(OC(F)F)c23)ccc1S(C)(=O)=O` [Example 69, 3-(difluoromethoxy)-4-(3-methyl-4-(methylsulfonyl)phenyl)-1H-indazole-5-carbonitrile] was run?
A: The IC50 was < 0.013 µM.

Q: `COc1cc2[nH]nc(C3CC3)c2c(-c2ccc(S(C)(=O)=O)c(C)c2)n1` [Example 70, 3-cyclopropyl-6-methoxy-4-(3-methyl-4-methylsulfonylphenyl)-1H-pyrazolo[4,3-c]pyridine] was tested. Which IC50 did it give?
A: Its IC50 is 0.061 µM.

Q: With `Cc1cc(-c2nccc3[nH]nc(OC(F)(F)F)c23)ccc1S(C)(=O)=O` [Example 71, 4-(3-methyl-4-(methylsulfonyl)phenyl)-3-(trifluoromethoxy)-1H-pyrazolo[4,3-c]pyridine] as the molecule, how does the IC50 read?
A: Its IC50 is < 0.013 µM.

Q: How did the IC50 turn out when `Cc1cc(-c2c(C(N)=O)ncc3[nH]nc(C4CC4)c23)ccc1S(C)(=O)=O` [Example 72, 3-cyclopropyl-4-(3-methyl-4-(methylsulfonyl)phenyl)-1H-pyrazolo[3,4-c]pyridine-5-carboxamide] was run?
A: The IC50 was < 0.013 µM.

Q: How did the IC50 turn out when `CNC(=O)c1ncc2[nH]nc(C3CC3)c2c1-c1ccc(S(C)(=O)=O)c(C)c1` [Example 73] was run?
A: Its IC50 is < 0.013 µM.

Q: How did the IC50 turn out when `Cc1cc(-c2nncc3[nH]nc(C4CC4)c23)ccc1S(C)(=O)=O` [Example 74, 3-cyclopropyl-4-(3-methyl-4-(methylsulfonyl)phenyl)-1H-pyrazolo[3,4-d]pyridazine] was run?
A: The IC50 was 0.11 µM.

Q: Which IC50 does the source give for `CSc1ccc2[nH]nc(C3CC3)c2c1-c1ccc(S(C)(=O)=O)c(C)c1` [Example 75, 3-cyclopropyl-4-(3-methyl-4-(methylsulfonyl)phenyl)-5-(methylthio)-1H-indazole] here?
A: Its IC50 is 0.013 µM.

Q: How did the IC50 turn out when `Cc1cc(-c2c([S+](C)[O-])ccc3[nH]nc(C4CC4)c23)ccc1S(C)(=O)=O` (centres unmarked) [Example 76, 3-cyclopropyl-4-(3-methyl-4-(methylsulfonyl)phenyl)-5-(methylsulfinyl)-1H-indazole] was run?
A: Its IC50 is 0.26 µM.

Q: With `Cc1cc(-c2c(S(C)(=O)=O)ccc3[nH]nc(C4CC4)c23)ccc1S(C)(=O)=O` [Example 77, 3-cyclopropyl-4-(3-methyl-4-(methylsulfonyl)phenyl)-5-(methylsulfonyl)-1H-indazole] as the molecule, how does the IC50 read?
A: Its IC50 is 0.013 µM.

Q: Which IC50 does the source give for `Cc1cc(-n2c(=O)ccc3[nH]nc(OC(F)F)c32)ccc1S(C)(=O)=O` [Example 78, 3-(difluoromethoxy)-4-(3-methyl-4-methylsulfonyl-phenyl)-1H-pyrazolo[4,3-b]pyridin-5-one] here?
A: Its IC50 is < 0.013 µM.

Q: With `Cc1cc(-c2c(C(F)(F)F)ncc3[nH]nc(C4CC4)c23)ccc1S(C)(=O)=O` [Example 79, 3-cyclopropyl-4-(3-methyl-4-methylsulfonylphenyl)-5-(trifluoromethyl)-1H-pyrazolo[3,4-c]pyridine] as the molecule, how does the IC50 read?
A: The IC50 was < 0.013 µM.

Q: With `Cc1cc(-n2c(=O)c(C)cc3[nH]nc(C4CC4)c32)ccc1S(C)(=O)=O` [Example 80, 3-cyclopropyl-6-methyl-4-(3-methyl-4-methylsulfonyl-phenyl)-1H-pyrazolo[4,3-b]pyridin-5-one] as the molecule, how does the IC50 read?
A: Its IC50 is 0.031 µM.

Q: How did the IC50 turn out when `Cc1cc(-n2c(=O)c(C3CC3)cc3[nH]nc(C4CC4)c32)ccc1S(C)(=O)=O` [Example 81, 3,6-dicyclopropyl-4-(3-methyl-4-methylsulfonyl-phenyl)-1H-pyrazolo[4,3-b]pyridin-5-one] was run?
A: Its IC50 is 0.079 µM.

Q: `Cc1cc(-c2c(OC(F)F)ncc3[nH]nc(C4CC4)c23)ccc1S(C)(=O)=O` [Example 82, 3-cyclopropyl-5-(difluoromethoxy)-4-(3-methyl-4-(methylsulfonyl)phenyl)-1H-pyrazolo[3,4-c]pyridine] was tested. Which IC50 did it give?
A: The IC50 was < 0.013 µM.

Q: Which IC50 does the source give for `Cc1cc(-c2c(C(=O)N(C)C)ncc3[nH]nc(C4CC4)c23)ccc1S(C)(=O)=O` [Example 83, 3-cyclopropyl-N,N-dimethyl-4-(3-methyl-4-(methylsulfonyl)phenyl)-1H-pyrazolo[3,4-c]pyridine-5-carboxamide] here?
A: Its IC50 is 0.5 µM.

Q: With `Cc1cc(-c2c(C3CC3)ncc3[nH]nc(C4CC4)c23)ccc1S(C)(=O)=O` [Example 85] as the molecule, how does the IC50 read?
A: Its IC50 is 0.02 µM.

Q: Which IC50 does the source give for `CNC(=O)c1c(F)cc2[nH]nc(C3CC3)c2c1-c1ccc(S(C)(=O)=O)c(C)c1` [Example 88, 3-cyclopropyl-6-fluoro-N-methyl-4-(3-methyl-4-(methylsulfonyl)phenyl)-1H-indazole-5-carboxamide] here?
A: The IC50 was < 0.013 µM.

Q: How did the IC50 turn out when `CNC(=O)c1ncc2[nH]nc(C3CC3)c2c1-c1ccc(S(=O)(=O)C2CC2)c(C)c1` [Example 89, 3-cyclopropyl-4-(4-cyclopropylsulfonyl-3-methyl-phenyl)-N-methyl-1H-pyrazolo[3,4-c]pyridine-5-carboxamide] was run?
A: The IC50 was 0.035 µM.

Q: For `Cc1cc(-c2c(C#N)c(Cl)cc3[nH]nc(C4CC4)c23)ccc1S(C)(=O)=O` [Example 90, 6-chloro-3-cyclopropyl-4-(3-methyl-4-methylsulfonylphenyl)-1H-indazole-5-carbonitrile], which IC50 is on record?
A: Its IC50 is < 0.013 µM.

Q: For `Cc1cc(-n2c(=O)ccc3[nH]nc(OC(F)(F)F)c32)ccc1S(C)(=O)=O` [Example 91, 4-(3-methyl-4-methylsulfonyl-phenyl)-3-(trifluoromethoxy)-1H-pyrazolo[4,3-b]pyridin-5-one], which IC50 is on record?
A: The IC50 was < 0.013 µM.

Q: With `Cc1cc(-n2c(=O)ccc3[nH]cc(C4CC4)c32)ccc1S(C)(=O)=O` [Example 92, 3-cyclopropyl-4-(3-methyl-4-methylsulfonyl-phenyl)-1H-pyrrolo[3,2-b]pyridin-5-one] as the molecule, how does the IC50 read?
A: The IC50 was 0.029 µM.

Q: `Cc1cc(-c2c(S(C)(=O)=O)ccc3[nH]nc(OC(F)(F)F)c23)ccc1S(C)(=O)=O` [Example 93, 4-(3-methyl-4-(methylsulfonyl)phenyl)-5-(methylsulfonyl)-3-(trifluoromethoxy)-1H-indazole] was tested. Which IC50 did it give?
A: Its IC50 is < 0.013 µM.

Q: Which IC50 does the source give for `CS(=O)(=O)c1ccc(-c2c(S(C)(=O)=O)ccc3[nH]nc(C4CC4)c23)cc1C(F)F` [Example 94, 3-cyclopropyl-4-(3-(difluoromethyl)-4-(methylsulfonyl)phenyl)-5-(methylsulfonyl)-1H-indazole] here?
A: The IC50 was 0.05 µM.

From patent publication US12565497B2 (Hoffmann-La Roche Inc., priority 2020, dated 2026)
